# Where two headings read alike, the source gives them in different places.
# How the values were obtained:
# mice [1] = experiment: gastric emptying after a single ingestion in mice (FIG. 6); type: in vivo; conditions: single dose vs sham gavage
# mice [2] = experiment: insulin sensitivity in mice with chronic ingestion, high fat diet (FIG. 4); type: in vivo; conditions: mice chronically fed high fat diet containing 0.2 wt % compound vs same diet without
# TRPA1 [3] = target: T1, TRPA1 (Homo sapiens, UniProt O75762); conditions: known TRPA1 agonist; read-out: EC50 TRPA1 activation; cited from earlier work
# T1 sequence (O75762 whole entry, species assumed): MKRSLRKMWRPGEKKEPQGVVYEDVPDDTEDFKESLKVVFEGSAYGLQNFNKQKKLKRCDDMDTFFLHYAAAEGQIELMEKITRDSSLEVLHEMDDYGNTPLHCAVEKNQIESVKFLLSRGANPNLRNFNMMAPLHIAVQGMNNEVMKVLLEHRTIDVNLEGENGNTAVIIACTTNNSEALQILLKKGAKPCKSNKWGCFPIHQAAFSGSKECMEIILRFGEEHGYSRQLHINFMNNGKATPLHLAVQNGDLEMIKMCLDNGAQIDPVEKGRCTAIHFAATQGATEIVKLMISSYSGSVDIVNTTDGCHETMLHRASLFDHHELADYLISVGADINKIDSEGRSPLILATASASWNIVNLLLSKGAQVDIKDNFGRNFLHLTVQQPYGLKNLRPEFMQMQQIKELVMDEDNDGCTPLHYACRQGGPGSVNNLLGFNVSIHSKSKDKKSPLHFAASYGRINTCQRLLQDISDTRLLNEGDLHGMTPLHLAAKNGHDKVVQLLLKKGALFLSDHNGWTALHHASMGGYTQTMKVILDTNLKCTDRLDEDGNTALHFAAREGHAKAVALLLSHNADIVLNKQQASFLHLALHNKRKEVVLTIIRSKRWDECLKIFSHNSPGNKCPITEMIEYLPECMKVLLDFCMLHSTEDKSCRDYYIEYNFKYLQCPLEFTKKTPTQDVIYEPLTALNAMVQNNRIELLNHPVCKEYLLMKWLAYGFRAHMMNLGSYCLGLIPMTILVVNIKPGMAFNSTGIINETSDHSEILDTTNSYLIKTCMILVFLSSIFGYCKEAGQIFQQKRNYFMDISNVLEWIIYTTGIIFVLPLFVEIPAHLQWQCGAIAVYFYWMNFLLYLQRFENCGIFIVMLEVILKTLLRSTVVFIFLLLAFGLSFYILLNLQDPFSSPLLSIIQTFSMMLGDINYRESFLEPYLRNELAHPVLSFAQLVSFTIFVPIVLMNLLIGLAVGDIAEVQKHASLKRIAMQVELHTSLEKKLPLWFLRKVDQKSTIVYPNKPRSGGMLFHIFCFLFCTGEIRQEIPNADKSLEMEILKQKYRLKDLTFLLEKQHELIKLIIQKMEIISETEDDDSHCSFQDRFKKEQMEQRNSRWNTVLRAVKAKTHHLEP
# mice [4] = experiment: body weight gain in mice with chronic ingestion, high fat diet (FIG. 3); type: in vivo; conditions: mice chronically fed high fat diet containing 0.2 wt % compound vs same diet without
# mice [5] = experiment: short term food intake after a single ingestion in mice (FIG. 5); type: in vivo; conditions: single dose vs sham gavage
# "empty" cells = experiment: in vitro activation on "empty" cells, control (FIG. 7); type: cell-based; conditions: FIG. 7, downward pointing triangles
# TRPV1 = target: T2, TRPV1 (Homo sapiens, UniProt Q8NER1); experiment: in vitro activation of TRPV1 in cells expressing TRP channels (FIG. 7); type: cell-based; conditions: FIG. 7, squares; read-out: EC 50 TRPV1 activation
# T2 construct: expressed in transfected cells; an “empty” cell control implies recombinant expression
# T2 sequence (Q8NER1 whole entry, species assumed): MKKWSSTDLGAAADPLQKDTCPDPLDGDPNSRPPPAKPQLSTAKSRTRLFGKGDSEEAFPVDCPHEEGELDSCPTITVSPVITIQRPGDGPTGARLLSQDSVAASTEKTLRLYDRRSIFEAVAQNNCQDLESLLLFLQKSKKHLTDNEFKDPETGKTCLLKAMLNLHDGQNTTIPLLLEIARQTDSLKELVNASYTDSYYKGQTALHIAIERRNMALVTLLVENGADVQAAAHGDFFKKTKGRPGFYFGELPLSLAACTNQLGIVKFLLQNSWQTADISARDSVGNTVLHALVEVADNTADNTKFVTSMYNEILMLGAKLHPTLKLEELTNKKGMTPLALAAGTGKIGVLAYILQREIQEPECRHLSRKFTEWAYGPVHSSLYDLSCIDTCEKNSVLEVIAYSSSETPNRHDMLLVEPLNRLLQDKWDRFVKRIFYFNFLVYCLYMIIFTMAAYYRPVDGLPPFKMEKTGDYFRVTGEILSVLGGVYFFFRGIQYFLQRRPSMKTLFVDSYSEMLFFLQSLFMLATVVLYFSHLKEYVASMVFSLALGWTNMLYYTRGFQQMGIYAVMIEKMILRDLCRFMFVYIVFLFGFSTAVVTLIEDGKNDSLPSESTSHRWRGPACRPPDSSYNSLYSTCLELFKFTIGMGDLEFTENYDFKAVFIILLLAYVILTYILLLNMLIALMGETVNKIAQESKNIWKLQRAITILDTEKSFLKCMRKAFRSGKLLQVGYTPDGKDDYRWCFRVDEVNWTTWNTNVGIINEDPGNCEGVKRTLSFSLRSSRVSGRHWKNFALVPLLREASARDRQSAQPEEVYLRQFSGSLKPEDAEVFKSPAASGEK
# TRPM8 = TRPM8 (Homo sapiens, UniProt Q7Z2W7); experiment: in vitro activation of hTRPM8 in cells expressing TRP channels (FIG. 7); type: cell-based; design: expressed in transfected cells; an “empty” cell control implies recombinant expression; conditions: FIG. 7, upward pointing triangles
# TRPM8, sequence (Q7Z2W7 whole entry): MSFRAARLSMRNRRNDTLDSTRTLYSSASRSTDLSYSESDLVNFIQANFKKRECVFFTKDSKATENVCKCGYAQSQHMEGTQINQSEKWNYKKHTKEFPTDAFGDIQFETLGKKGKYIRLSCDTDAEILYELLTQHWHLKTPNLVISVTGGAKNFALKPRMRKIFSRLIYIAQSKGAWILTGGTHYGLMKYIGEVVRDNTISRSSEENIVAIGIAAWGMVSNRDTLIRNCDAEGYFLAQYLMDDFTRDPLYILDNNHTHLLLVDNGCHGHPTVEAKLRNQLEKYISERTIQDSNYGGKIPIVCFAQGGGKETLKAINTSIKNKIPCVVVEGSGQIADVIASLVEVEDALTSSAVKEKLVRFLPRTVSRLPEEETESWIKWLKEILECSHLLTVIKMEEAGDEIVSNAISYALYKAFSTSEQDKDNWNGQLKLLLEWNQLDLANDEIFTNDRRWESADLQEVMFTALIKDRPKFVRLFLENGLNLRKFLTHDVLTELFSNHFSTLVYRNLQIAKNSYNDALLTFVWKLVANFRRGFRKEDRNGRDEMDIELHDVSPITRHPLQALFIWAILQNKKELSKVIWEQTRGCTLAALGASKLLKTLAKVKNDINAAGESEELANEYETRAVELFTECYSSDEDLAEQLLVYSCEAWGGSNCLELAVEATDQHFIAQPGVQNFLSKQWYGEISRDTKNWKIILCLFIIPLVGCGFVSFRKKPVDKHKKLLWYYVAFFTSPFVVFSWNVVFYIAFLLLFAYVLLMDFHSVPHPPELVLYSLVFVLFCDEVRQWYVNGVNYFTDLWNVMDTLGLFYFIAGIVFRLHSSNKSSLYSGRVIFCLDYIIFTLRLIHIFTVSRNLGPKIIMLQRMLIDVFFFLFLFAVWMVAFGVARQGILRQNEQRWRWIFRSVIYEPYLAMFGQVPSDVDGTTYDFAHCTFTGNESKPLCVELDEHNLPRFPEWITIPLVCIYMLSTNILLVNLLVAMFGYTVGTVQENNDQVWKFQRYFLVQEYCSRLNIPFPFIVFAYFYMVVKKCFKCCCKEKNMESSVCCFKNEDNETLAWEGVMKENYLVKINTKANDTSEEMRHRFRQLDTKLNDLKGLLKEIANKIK
# TRPA1 [6] = target: T1, TRPA1; experiment: in vitro activation of TRPA1 in cells expressing TRP channels (FIG. 7); type: cell-based; conditions: FIG. 7, circles; read-out: EC-50 TRPA1 activation
SMILES,gastric emptying (mice [1]),insulin sensitivity (mice [2]),EC50 (TRPA1 [3]) [µM],body weight gain (mice [4]),short term food intake (mice [5]),"activation of ""empty"" cells (""empty"" cells)",EC50 (TRPV1) [µM],activation of hTRPM8 (TRPM8),EC50 (TRPA1 [6]) [µM]
O=CC=Cc1ccccc1 [cinnamaldehyde],delayed gastric emptying,improved insulin sensitivity,~60,gained less weight,reduction in short term food intake,,,,
COc1ccc(C=O)cc1 [p-anisaldehyde],,,,,,no activation was observed,~500,no activation was observed,~100
